Measurements from US12343335B2, “Pharmaceutical composition for treating multiple sclerosis on basis of AMPK inhibitory function and zinc homeostasis control function” (ZINCURE CORP., priority 2019, dated 2025).

Tests used:
[1] = system: MOG35-55-induced experimental autoimmune encephalomyelitis (EAE); assay: EAE clinical symptom assessment and incidence rate, 21 days after immunization; assay type: in vivo, C57BL/6 female mice; settings: EAE mice, 1H10 intraperitoneally once a day, vs vehicle
From the text: The experimental animals used in the present invention are an 8-week-old, C57BL/6 female mice supplied from Dae Han BioLink, Co., Ltd. (Korea). These mice were bred in an environment controlled by temperature and humidity, and feed and water were fed freely.
The present inventors induced experimental autoimmune encephalomyelitis (EAE), an animal model of multiple sclerosis, by subcutaneously injecting Myelin oligodendrocyte glycoprotein 35-55 (MOG35-55) peptide antigen into C57BL/6 female mice (FIG. 1A). For this, MOG35-55 (Ana spec, USA) and Complete freund's adjuvant (CFA) were first prepared, and MOG35-55 (2 mg/ml) was dissolved in Phosphate buffered saline (lx PBS, Sigma), and then the 25 ml of CFA was prepared by dispending 25 ml of incomplete freund's adjuvant (IFA. Sigma) in a 50 ml conical tube. Then, in a fume hood, Mycobacterium tuberculosis H37Ra (100 mg; Difco, USA) was added to the IFA in order to prepare CFA and store it in the refrigerator after vortexing before use. […] After the immunization, the mice's body weight and clinical symptoms were measured every day, and the degree of EAE progression was evaluated based on specific clinical symptoms. […]
EAE clinical symptom was evaluated based on previous studies (Jones et al., J. Neuroimmunol. 199(1-2): 83-93. 2008). […]

[2] = system: spinal cord of MOG35-55 immunized EAE mice; assay: Immunofluorescence staining of spinal cord of EAE mice; assay type: in vivo, C57BL/6 female mice
Experimental: The present inventors induced experimental autoimmune encephalomyelitis (EAE), an animal model of multiple sclerosis, by subcutaneously injecting Myelin oligodendrocyte glycoprotein 35-55 (MOG35-55) peptide antigen into C57BL/6 female mice (FIG. 1A). For this, MOG35-55 (Ana spec, USA) and Complete freund's adjuvant (CFA) were first prepared, and MOG35-55 (2 mg/ml) was dissolved in Phosphate buffered saline (lx PBS, Sigma), and then the 25 ml of CFA was prepared by dispending 25 ml of incomplete freund's adjuvant (IFA. Sigma) in a 50 ml conical tube. Then, in a fume hood, Mycobacterium tuberculosis H37Ra (100 mg; Difco, USA) was added to the IFA in order to prepare CFA and store it in the refrigerator after vortexing before use. Thereafter, MOG35-55 and CFA containing Mycobacterium tuberculosis H37Ra was mixed in the same amount and injected into both flanks of the mice. And then Pertussis toxin (4 μg/ml, List Biological Laboratories, USA) was injected intraperitoneally on the day of immunization and on the second day after immunization. After the immunization, the mice's body weight and clinical symptoms were measured every day, and the degree of EAE progression was evaluated based on specific clinical symptoms. More details on this are provided below.
On the 21st day after EAE induction, the present inventors anesthetized mice with urethane and then perfused 4% paraformaldehyde into the heart to fix the spinal cord. After extracting the spinal cord, in order to examine demyelination of activity of microglia/macrophages the cell/macrophage activity of the tissue, immunofluorescence staining was performed with anti-myelin basic protein (MBP) and anti-F4/80 (Microglia/Macrophage) antibodies. In addition, anti-bodies against ionized calcium binding adapter molecule-1 (Iba-1) and anti-CD68 (Cluster of Differentiation 68) used as markers of microglia/macrophages to analyze the phenotype of strongly activated microglia/macrophages in the white matter part of the damaged spinal cord. Double immunofluorescence staining was performed using antibodies against CD8 and matrix metalloproteinase 9 (MMP-9) in order to investigate how AMP-activated protein kinase (AMPK) activity affects the survival of these cells. In addition, double immunofluorescence staining was performed using anti-CD8 and anti-phospho-AMPK antibodies to determine how AMP-activated protein kinase (AMPK) activity affects the survival of these cells in T cells infiltrating the spinal cord. In order to compare and analyze the activity of (MMP-9), immunofluorescence staining was performed using anti-MMP-9 antibodies. To examine the activity of astrocytes in the spinal cord, immunofluorescence staining was performed using anti-glial fibrillary acidic protein (GFAP) antibodies. To compare and analyze the expression of cytokines such as tumor necrosis factor (TNF) alpha and interferon (IFN) gamma, double immunofluorescence staining was performed using anti-TNF-alpha and anti-IFN gamma antibodies. In the same manner as the immunohistochemical method described above, the cryosections were reacted with 3% hydrogen peroxide at room temperature for 15 minutes to remove endogenous peroxidase, and then the primary antibodies, rat anti-MBP (1:200, Abcam, UK), anti-F4/80 (1:100, eBioscience, USA), goat anti-Iba1 (1:500, Abcam), anti-CD68 (1:100, Bio-Rad Laboratories, USA), anti-CD8 (1:50, BD Bioscience), anti-p-AMPK (1:100, Abcam), anti-MMP-9 (1:100, Abcam), anti-GFAP (1:500, Abcam), anti-IFN gamma (1:100, Invitrogen, USA), anti-TNF alpha (1:250, Abcam) antibodies were reacted for 15 hours at 4° C. Then, Alexa Fluor 488-, 594-, 647-conjugated secondary antibodies (1:250, Invitrogen, USA) suitable for the host of each primary antibodies were reacted at room temperature for 2 hours. […]

[3] = system: spinal cord white matter of EAE mice; assay: Zinc staining (TSQ) of spinal cord of EAE mice; assay type: in vivo, C57BL/6 female mice; settings: day 21 after EAE induction
[4] = system: cultivated neurons; assay: Cytosolic zinc level in cultured neurons with FluoZin-3; assay type: cell-based, mouse; settings: neurons exposed to zinc (300 μM) for 15 minutes, measured for 60 min
Experimental: (§1) The mouse cortical neurons used in the present invention were extracted from the brain of a mouse embryo, and cultured in Dulbecco's modified Eagle's medium (DMEM, Gibco, Grand Island, NY, US) supplemented with 5% fetal bovine serum (FBS) and 5% horse serum (HS) under the condition of 95% humidity, 5% CO2 and 37° C. For activation and differentiation of the cells, the cells were grown to a density of 2×10^4 cells in a 24-well tissue culture plate and cultured in MEM medium without FBS and HS before treatment with zinc and compounds.
The present inventors treated FluoZin-3, a substance illuminate fluorescence if it bind to free zinc to cultivated neurons in order to verify the possibility of zinc chelation according to the treatment of 1H10 {(Z)-5-((1H-indol-3-yl)methylene)-2-((3-hydroxyphenyl)amino)thiazol-4(5H)-one} according to an embodiment of the present invention, and then measured cytosolic zinc level in the neurons for 60 min after exposing zinc (300 μM) for 15 minutes and removing the zinc. In addition, 20 μM zinc (ZnCl2) and NewPort Green DCF fluorophore, which emits fluorescence when it bind to zinc, were added to the test tube, and 1H10 of the present invention was treated at various concentrations. Clioquinol, a zinc chelator, and calcium ionophore Phosphorus ionomycin was used as controls. […]

[5] = system: mouse cortical neuron culture; assay: Intrinsic toxicity in cortical neuron culture, LDH cytotoxicity; assay type: cell-based; settings: 40 μM
Experimental: as §1
Specifically, 40 μM of each of the drugs was treated in a mouse cortical neuron culture, and LDH cytotoxicity was observed after 24 or 48 hours.

[6] = spinal cord white matter, day 21 after EAE induction, compared to vehicle only
[7] = spinal cord, day 21 after EAE induction, vs vehicle

Structure (SMILES): O=C1N=C(Nc2cccc(O)c2)S/C1=C\c1c[nH]c2ccccc12 [1H10, (Z)-5-((1H-indol-3-yl)methylene)-2-((3-hydroxyphenyl)amino)thiazol-4(5H)-one]
- behavioral disorders (EAE clinical score) [1]: significantly inhibited
- incidence rate [1]: suppressed
- phosphorylation of AMPK in CD8+ T cells infiltrated into the spinal cord ([2]; after EAE induction, vs vehicle): significantly decreased
- activity of MMP-9 ([2]; spinal cord white matter, EAE, compared to vehicle only): inhibited
- activity of astrocytes (GFAP) ([2]; spinal cord white matter, day 21, vs vehicle): significantly inhibited
- expression of IFN gamma [2, 6]: increased
- expression of TNF alpha [2, 6]: decreased
- activated M1-type microglia/macrophages (Iba-1 and CD68 co-expression) ([2]; spinal cord, after EAE induction, vs vehicle): significantly reduced
- EAE-induced demyelination (MBP staining) [2, 7]: significantly decreased
- activity of microglia/macrophages (F4/80) [2, 7]: significantly decreased
- patch-like TSQ abnormal staining (zinc accumulation) [3]: significantly reduced
- increase of intracellular zinc level (FluoZin-3) [4]: significantly reduced
- intrinsic toxicity (LDH cytotoxicity) ([5]; after 24 hours of drug treatment): 7.81±2.77%
- intrinsic toxicity (LDH cytotoxicity) ([5]; after 48 hours of drug treatment): 60.72±8.28%
